The text below walks through data of US20020045247A1, “METHODS FOR THE PREPARATION OF RETROVIRAL PARTICLES AND CELL LINES DEFICIENT IN THE ALPHA-GALACTOSYL EPITOPE” (priority 1997, published 2002).

Molecules are shown by their SMILES.

In assay [1] the test system is Golgi α-mannosidase I. Particulars: addition of inhibitor; cited from earlier work.
The subject of assay [2] is complement-mediated inactivation of amphotropic retroviral particles in human serum. As to the kind of experiment: Retrovirus killing assay in human serum preincubated with soluble carbohydrates. The following applies: for effect on complement-mediated retrovirus inactivation / retrovirus survival: 5 mg/ml carbohydrate preincubated with 40% human serum, titered on NIH/3T3 cells. It counts as cell-based. Here is the method: (§1) RVVP samples were assayed for titer of infectious RVVPs on NIH/3T3 cells (ATCC designation CCL 163). 2.5×10^4 cells were plated per well in 6-well plates with 2 ml of DMEM containing 10% fetal bovine serum (D10). The medium in each well was replaced with 2 ml of D10 containing 8 μg/ml of polybrene and retroviral particles were added. Ten-fold dilutions were made from the original well and plates were incubated for 24 h at 37° C. Medium was removed and 2 ml of D10 containing 500 μg/ml of G418 (active weight) was added. The cells were maintained under selection for 7 days with 2 changes of medium during this period. Finally, medium was removed and colonies were stained with methylene blue saturated methanol for 15 min. followed by a brief rinse in water. Wells containing less than 100 colonies were counted to determine titers.
Retroviral vector particles, including those from PA317 or PA317/H-transferase cells, (approximately 500 CFU) were incubated for 30 min. at 37° C. in 100 μl of 40% primate sera diluted in Hank's balanced salt solution (HBSS) and subsequently titered on NIH/3T3 cells to assess retrovirus survival as described above. The different primate sera included human (Diamedix, Cambridge, Mass.), chimpanzee (Southwest Foundation for Research, San Antonio, Tex.), baboon, squirrel monkey, owl monkey and tamarin (all from the New England Regional Primate Research Center, Southborough, Mass.). Data were calculated as percent retrovirus survival in the various sera relative to the number of input CFU (determined by incubation of virus in 40% heat inactivated human serum). […] In the anti-αgalactosyl antibody depletion experiments, retroviral particles were preincubated with either anti-αgalactosyl antibody (90 μg/ml) or buffer alone (PBS; BioWhittaker, Walkersville, Md.) for 30 min. at 37° C. before the addition of either 40% human serum, 40% human serum depleted of anti-αgalactosyl antibodies or 40% squirrel monkey serum for an additional 30 min. incubation. Retrovirus survival was then assessed as described above.

Assay [3] has as its system inactivation of LXSN retroviral vector particles by human serum. Put plainly: Inactivation of LXSN retroviral vector particles in human serum in the presence of added sugars (Example 2). Type of assay: cell-based. The following applies: 0.3125, 0.625, 1.25, 2.5 and 5 mg/ml; 40% human serum; relative to samples without added sugars. As to the method:
as §1
LXSN retroviral vector particles were prepared as described above. Aliquots of a 40% solution of human serum in HBSS were then incubated for 15 minutes at room temperature with added sugars. The sugars added were D-glucose (Mallinckrodt, Paris, Ky.) and galactose alpha-1,3 galactose (Dextra Laboratories, Reading, England), and were added at concentrations of 0.3125, 0.625, 1.25, 2.5, and 5 mg/ml. […] The results of these titrations were calculated as fold increase in retroviral vector particle survival relative to the control samples, and are set forth in FIG. 2.

Assay [4] has as its target T1, α-glucosidase I (Homo sapiens, UniProt Q13724).
T1 sequence (Q13724 1-837): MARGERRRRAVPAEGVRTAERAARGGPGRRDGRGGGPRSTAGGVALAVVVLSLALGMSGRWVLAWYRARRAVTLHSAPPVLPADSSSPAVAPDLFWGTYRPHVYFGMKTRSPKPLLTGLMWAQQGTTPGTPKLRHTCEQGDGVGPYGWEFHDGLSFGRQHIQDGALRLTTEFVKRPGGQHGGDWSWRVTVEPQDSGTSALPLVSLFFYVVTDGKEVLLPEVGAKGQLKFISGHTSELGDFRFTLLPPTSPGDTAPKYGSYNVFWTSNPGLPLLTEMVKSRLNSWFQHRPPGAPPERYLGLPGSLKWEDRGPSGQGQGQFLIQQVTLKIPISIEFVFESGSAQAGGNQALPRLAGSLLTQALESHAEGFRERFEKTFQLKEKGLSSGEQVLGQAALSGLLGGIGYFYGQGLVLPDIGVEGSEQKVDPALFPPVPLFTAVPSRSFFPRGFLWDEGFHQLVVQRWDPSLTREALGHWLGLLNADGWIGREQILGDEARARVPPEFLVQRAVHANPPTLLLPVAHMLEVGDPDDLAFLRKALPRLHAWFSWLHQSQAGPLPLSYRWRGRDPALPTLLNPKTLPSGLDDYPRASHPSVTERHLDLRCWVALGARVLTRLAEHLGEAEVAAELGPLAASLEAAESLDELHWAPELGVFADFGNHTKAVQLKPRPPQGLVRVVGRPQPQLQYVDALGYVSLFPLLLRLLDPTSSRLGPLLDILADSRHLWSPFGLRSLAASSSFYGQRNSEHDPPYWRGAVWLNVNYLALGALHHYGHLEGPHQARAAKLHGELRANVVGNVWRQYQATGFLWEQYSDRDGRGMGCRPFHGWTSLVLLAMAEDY
The following applies: addition of inhibitor; cited from earlier work.

Assay [5] has as its target T2, Golgi α-mannosidase II (Homo sapiens, UniProt Q16706).
T2 sequence (Q16706 1-1144): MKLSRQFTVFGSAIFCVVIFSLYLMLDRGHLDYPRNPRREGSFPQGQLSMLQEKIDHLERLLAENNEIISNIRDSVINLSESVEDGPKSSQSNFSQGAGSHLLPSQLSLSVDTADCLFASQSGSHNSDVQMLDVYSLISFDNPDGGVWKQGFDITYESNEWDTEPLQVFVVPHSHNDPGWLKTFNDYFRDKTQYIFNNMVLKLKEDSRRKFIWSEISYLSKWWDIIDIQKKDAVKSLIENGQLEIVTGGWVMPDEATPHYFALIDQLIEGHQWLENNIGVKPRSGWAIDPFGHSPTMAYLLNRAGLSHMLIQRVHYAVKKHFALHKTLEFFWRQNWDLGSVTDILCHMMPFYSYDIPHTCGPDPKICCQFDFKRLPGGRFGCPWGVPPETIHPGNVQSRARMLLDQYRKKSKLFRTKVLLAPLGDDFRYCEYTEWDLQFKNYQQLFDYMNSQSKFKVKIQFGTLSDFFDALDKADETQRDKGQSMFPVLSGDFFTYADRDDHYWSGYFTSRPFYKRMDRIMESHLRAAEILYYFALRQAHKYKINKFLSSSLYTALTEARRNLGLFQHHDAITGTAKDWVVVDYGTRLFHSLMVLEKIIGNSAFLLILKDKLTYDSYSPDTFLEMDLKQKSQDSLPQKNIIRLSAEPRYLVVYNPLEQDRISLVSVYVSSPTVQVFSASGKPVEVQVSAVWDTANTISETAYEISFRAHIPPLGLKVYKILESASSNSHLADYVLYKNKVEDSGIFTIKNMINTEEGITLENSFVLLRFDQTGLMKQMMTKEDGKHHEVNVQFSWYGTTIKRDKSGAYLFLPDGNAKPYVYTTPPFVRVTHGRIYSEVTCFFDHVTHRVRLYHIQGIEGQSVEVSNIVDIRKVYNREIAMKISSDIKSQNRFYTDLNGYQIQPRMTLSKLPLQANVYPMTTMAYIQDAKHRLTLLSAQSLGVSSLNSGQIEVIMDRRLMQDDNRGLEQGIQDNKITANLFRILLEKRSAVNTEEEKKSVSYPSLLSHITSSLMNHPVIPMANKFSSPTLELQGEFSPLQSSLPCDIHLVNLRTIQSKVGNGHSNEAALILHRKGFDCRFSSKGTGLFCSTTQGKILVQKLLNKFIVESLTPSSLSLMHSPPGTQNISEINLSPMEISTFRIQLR
Particulars: addition of inhibitor; cited from earlier work.

With `OC[C@H]1NC[C@@H](O)[C@@H](O)[C@@H]1O` [1-deoxymannojirimycin], in assay [1], the “activity of Golgi α-mannosidase I” value was “greatly reduced”.

A word on the inhibition: it is the relative decrease from the control value, in per cent. The low end stands for a weak effect, the high end for a strong effect. In turn, `O=C[C@H](O)[C@@H](O)[C@@H](O)[C@H](O)CO` [D(+) galactose] registered an inhibition at 5000 µg/mL in assay [2] (5 mg/ml, 40% human serum) of around 25%.

As to `O=C[C@H](O)[C@@H](O)[C@H](O)[C@H](O)CO` [D(+) glucose], the “reduction of inactivation of retroviral vector particles by human serum” value in assay [3] is “not”. In addition, the “effect on complement-mediated retrovirus inactivation / retrovirus survival” value in assay [2] was “did not affect retrovirus survival”.

On to `OC[C@H]1O[C@H](O[C@H]2[C@@H](O)[C@@H](CO)OC(O)[C@@H]2O)[C@H](O)[C@@H](O)[C@H]1O` (stereo partly drawn) [Galα1-3Gal, galactose α1-3 galactose], for which the “reduction of inactivation of retroviral vector particles by human serum” value in assay [3] was “substantially reduces the inactivation of the retroviral vector particles”. Also, in assay [2], the “effect on complement-mediated retrovirus inactivation / retrovirus survival” value is on record as “completely blocked complement-mediated virolysis”. The “inhibition of retrovirus inactivation, dose dependence” value in assay [2] (various concentrations, 40% human serum) is “inhibited retrovirus inactivation in a dose-dependent manner”.

For the molecule `CN1C[C@H](O)[C@@H](O)[C@H](O)[C@H]1CO` [N-methyldeoxynojirimycin], the “activity of α-glucosidase I” value in assay [4] is given as “greatly reduced”.

Take `O[C@H]1[C@H](O)[C@@H](O)CN2CC[C@H](O)[C@H]12` [castanospermine]: the “activity of α-glucosidase I” value in assay [4] is given as “greatly reduced”.

Take `OC[C@H]1O[C@@](CO)(O[C@H]2O[C@H](CO)[C@@H](O)[C@H](O)[C@H]2O)[C@@H](O)[C@@H]1O` [sucrose]: the “effect on complement-mediated retrovirus inactivation / retrovirus survival” value in assay [2] is “did not affect retrovirus survival”.

In the case of `O[C@H]1[C@H]2[C@H](O)CCCN2C[C@H]1O` [swainsonine], the “activity of Golgi α-mannosidase II” value in assay [5] is on record as “greatly reduced”.

Regarding `C[C@@H]1O[C@@H](O)[C@@H](O)[C@H](O)[C@@H]1O` [α-L(−) fucose], the “effect on complement-mediated retrovirus inactivation / retrovirus survival” value in assay [2] is given as “did not affect retrovirus survival”.
